Results: patent US20090246880A1, “Method for preventing degradation of diacetylpolyamine” (priority 2008, published 2009)

Description: The present invention will next be described in detail by way of examples, which should not be construed as limiting the invention thereto. The percent degradation of diacetylspermine (%) in a sample was calculated on the basis of the amount of diacetylspermine as determined through ELISA. […] Subsequently, the pH of the mixture was adjusted with 50 mM phosphate buffer to 5.5, 6.0, 6.5, 7.0, 7.5, or 8.0. Thereafter, the reaction mixture was incubated at 37° C. for two hours. […] Subsequently, the ratio of the amount of diacetylspermine degraded through incubation to the initial amount of diacetylspermine was calculated.

- degradation of diacetylspermine (in words): prevented
Compound: CC(=O)NCCCNCCCCNCCCNC(C)=O [diacetylspermine]
